Results from patent US20230139171A1 (SITA Information Networking Computing UK Limited, priority 2019, published 2023).

What was measured:
Format in all cases: cell-based
human TLR7 = target: T1, human TLR7 (Homo sapiens, UniProt Q9NYK1); test: TLR7 inhibition reporter assay (HEK-Blue cells, SEAP reporter, gardiquimod stimulation); conditions: HEK-Blue cells overexpressing human TLR7, SEAP reporter, gardiquimod 7.5 μM; read-out: TLR7 IC50
T1 construct: host or cells: HEK-Blue cells
T1 sequence (Q9NYK1 27-1049): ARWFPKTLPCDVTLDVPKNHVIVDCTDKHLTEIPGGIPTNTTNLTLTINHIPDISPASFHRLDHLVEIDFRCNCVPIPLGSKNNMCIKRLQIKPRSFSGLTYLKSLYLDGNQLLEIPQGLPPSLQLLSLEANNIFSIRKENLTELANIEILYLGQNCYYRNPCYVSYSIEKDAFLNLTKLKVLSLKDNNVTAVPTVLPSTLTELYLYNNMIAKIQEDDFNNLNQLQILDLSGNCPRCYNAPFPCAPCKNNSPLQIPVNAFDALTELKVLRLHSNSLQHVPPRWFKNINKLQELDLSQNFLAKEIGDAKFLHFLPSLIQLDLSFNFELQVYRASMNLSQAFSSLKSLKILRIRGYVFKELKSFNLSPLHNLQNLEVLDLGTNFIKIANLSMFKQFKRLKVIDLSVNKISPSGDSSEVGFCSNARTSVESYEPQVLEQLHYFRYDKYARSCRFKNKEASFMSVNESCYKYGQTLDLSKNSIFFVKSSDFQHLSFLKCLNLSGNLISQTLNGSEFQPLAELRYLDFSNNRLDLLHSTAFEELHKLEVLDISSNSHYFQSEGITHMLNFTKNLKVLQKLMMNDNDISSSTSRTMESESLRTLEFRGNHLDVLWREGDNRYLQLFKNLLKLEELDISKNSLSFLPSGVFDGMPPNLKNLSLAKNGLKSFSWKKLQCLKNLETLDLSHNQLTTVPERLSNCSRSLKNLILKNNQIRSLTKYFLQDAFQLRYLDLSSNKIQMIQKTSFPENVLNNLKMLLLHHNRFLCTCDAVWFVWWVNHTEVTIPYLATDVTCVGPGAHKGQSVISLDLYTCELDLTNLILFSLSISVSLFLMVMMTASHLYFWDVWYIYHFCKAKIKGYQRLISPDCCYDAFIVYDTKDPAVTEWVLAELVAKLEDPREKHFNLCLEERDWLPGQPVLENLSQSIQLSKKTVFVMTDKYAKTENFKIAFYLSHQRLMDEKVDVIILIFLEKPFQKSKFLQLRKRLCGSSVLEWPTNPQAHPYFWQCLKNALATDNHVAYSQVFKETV
Method in brief: (§1)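 HEK-Blue cells overexpressing human TLR7, TLR8 or TLR9 carry a SEAP reporter driven by NF-κB/AP-1 sites. Compounds (0.05 nM–50 μM) were preincubated 30 min at room temperature, then cells were stimulated with gardiquimod 7.5 μM (TLR7), R848 15.9 μM (TLR8) or ODN2006 5 nM (TLR9) for 22 h at 37 °C.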

human TLR8 = target: T2, human TLR8 (Homo sapiens, UniProt Q9NR97); test: TLR8 inhibition reporter assay (HEK-Blue cells, SEAP reporter, R848 stimulation); conditions: HEK-Blue cells overexpressing human TLR8, SEAP reporter, R848 15.9 μM; read-out: TLR8 IC50
T2 construct: host or cells: HEK-Blue cells
T2 sequence (Q9NR97 27-1041): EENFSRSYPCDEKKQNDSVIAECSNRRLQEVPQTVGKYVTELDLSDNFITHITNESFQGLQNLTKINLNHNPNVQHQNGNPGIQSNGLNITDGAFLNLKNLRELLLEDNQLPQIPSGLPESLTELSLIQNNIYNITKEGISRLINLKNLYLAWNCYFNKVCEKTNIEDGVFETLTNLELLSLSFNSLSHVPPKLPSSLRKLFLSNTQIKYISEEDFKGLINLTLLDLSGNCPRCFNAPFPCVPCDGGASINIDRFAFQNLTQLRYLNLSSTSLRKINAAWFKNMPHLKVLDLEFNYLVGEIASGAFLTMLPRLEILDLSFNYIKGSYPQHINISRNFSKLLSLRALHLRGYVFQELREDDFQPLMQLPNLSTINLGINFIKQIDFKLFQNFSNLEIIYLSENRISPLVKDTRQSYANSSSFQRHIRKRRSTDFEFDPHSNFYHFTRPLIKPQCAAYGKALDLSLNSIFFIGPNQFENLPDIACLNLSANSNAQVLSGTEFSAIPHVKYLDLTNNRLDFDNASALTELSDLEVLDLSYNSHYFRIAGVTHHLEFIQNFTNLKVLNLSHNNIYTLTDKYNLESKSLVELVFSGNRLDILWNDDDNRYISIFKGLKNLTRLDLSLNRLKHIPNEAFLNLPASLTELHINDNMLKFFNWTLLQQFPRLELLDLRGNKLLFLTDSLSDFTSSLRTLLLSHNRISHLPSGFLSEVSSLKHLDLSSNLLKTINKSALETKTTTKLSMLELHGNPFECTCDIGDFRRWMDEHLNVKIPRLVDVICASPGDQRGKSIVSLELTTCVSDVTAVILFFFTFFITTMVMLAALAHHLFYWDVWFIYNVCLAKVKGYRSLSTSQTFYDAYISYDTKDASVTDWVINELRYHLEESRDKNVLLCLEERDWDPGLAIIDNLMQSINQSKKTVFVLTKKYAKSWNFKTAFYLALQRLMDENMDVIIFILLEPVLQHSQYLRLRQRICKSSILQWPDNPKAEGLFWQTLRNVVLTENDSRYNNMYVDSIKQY
Method in brief: as §1

human TLR9 = target: T3, human TLR9 (Homo sapiens, UniProt Q9NR96); test: TLR9 inhibition reporter assay (HEK-Blue cells, SEAP reporter, ODN2006 stimulation); conditions: HEK-Blue cells overexpressing human TLR9, SEAP reporter, ODN2006 5 nM
T3 construct: host or cells: HEK-Blue cells
T3 sequence (Q9NR96 26-1032): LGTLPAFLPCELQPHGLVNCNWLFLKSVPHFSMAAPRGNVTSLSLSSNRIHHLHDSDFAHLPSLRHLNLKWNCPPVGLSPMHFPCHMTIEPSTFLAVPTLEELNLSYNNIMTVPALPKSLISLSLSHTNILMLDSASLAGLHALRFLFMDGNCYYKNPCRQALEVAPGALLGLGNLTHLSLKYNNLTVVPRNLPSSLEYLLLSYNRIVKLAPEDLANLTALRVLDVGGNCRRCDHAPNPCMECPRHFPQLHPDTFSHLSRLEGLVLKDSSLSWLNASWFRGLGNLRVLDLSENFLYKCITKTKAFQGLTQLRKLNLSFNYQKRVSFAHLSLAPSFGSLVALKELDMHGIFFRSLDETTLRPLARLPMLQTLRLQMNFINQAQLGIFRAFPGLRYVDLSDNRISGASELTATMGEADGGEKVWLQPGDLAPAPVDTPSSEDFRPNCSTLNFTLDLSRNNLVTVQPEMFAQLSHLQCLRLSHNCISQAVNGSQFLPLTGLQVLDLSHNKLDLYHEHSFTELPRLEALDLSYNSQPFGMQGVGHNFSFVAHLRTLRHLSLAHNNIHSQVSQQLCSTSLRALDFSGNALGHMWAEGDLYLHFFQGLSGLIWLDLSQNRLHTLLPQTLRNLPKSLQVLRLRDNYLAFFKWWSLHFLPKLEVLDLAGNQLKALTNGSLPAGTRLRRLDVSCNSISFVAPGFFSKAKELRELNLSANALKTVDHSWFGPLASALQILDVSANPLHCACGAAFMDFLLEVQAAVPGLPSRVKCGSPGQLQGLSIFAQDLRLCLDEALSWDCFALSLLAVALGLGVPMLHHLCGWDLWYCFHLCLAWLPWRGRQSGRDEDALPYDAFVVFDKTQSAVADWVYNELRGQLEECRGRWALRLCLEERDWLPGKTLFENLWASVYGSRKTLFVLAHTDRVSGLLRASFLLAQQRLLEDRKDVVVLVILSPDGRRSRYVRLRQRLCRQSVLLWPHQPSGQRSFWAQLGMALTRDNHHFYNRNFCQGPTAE
Method in brief: as §1

Row | SMILES | IC50 (human TLR7) [nM] | IC50 (human TLR8) [nM] | IC50 (human TLR9) [nM]
1 | Cc1c(-c2[nH]c3sc(C4CCC(N5CC(F)C5)CC4)nc3c2C(C)C)cn(C)c(=O)c1C (single isomer, unassigned) [Example 265, 5-(2-(4-(3-fluoroazetidin-1-yl)cyclohexyl)-6-isopropyl-4H-pyrrolo[3,2-d]thiazol-5-yl)-1,3,4-trimethylpyridin-2(1H)-one] | 14 | 3.29 | 47700
2 | Cc1c(-c2[nH]c3sc(C4CCC(N5CC(F)C5)CC4)nc3c2C(C)C)cn(C)c(=O)c1C (single isomer, unassigned) [Example 266, 5-(2-(4-(3-fluoroazetidin-1-yl)cyclohexyl)-6-isopropyl-4H-pyrrolo[3,2-d]thiazol-5-yl)-1,3,4-trimethylpyridin-2(1H)-one] | 119 | 60.2 | > 50000
3 | Cc1c(-c2[nH]c3sc(C4CCC(N5CC(O)(C(F)(F)F)C5)CC4)nc3c2C(C)C)cn(C)c(=O)c1C (single isomer, unassigned) [Example 267, 5-(2-(4-(3-hydroxy-3-(trifluoromethyl)azetidin-1-yl)cyclohexyl)-6-isopropyl-4H-pyrrolo[3,2-d]thiazol-5-yl)-1,3,4-trimethylpyridin-2(1H)-one] | 24.3 | 7.16 | > 50000
4 | Cc1c(-c2[nH]c3sc(C4CCC(N5CC(O)(C(F)(F)F)C5)CC4)nc3c2C(C)C)cn(C)c(=O)c1C (single isomer, unassigned) [Example 268, 5-(2-(4-(3-hydroxy-3-(trifluoromethyl)azetidin-1-yl)cyclohexyl)-6-isopropyl-4H-pyrrolo[3,2-d]thiazol-5-yl)-1,3,4-trimethylpyridin-2(1H)-one] | 41.1 | 65.1 | > 50000
5 | CCc1c(-c2cc(OC)c3ncnn3c2)[nH]c2sc(C3CCC(N4CC5(COC5)C4)CC3)nc12 (single isomer, unassigned) [Example 269, 6-(4-(6-ethyl-5-(8-methoxy-[1,2,4]triazolo[1,5-a]pyridin-6-yl)-4H-pyrrolo[3,2-d]thiazol-2-yl)cyclohexyl)-2-oxa-6-azaspiro[3.3]heptane] | 4.31 | 2.55 | 6280
6 | CCc1c(-c2cc(OC)c3ncnn3c2)[nH]c2sc(C3CCC(N4CC5(COC5)C4)CC3)nc12 (single isomer, unassigned) [Example 270, 6-(4-(6-ethyl-5-(8-methoxy-[1,2,4]triazolo[1,5-a]pyridin-6-yl)-4H-pyrrolo[3,2-d]thiazol-2-yl)cyclohexyl)-2-oxa-6-azaspiro[3.3]heptane] | 8.99 | 14 | 3460
7 | CCc1c(-c2cc(OC)c3ncnn3c2)[nH]c2sc(C3CCC(NC4COC4)CC3)nc12 (single isomer, unassigned) [Example 271, N-(4-(6-ethyl-5-(8-methoxy-[1,2,4]triazolo[1,5-a]pyridin-6-yl)-4H-pyrrolo[3,2-d]thiazol-2-yl)cyclohexyl) oxetan-3-amine] | 0.96 | 1.94 | 4560
8 | CCc1c(-c2cc(OC)c3ncnn3c2)[nH]c2sc(C3CCC(NC4COC4)CC3)nc12 (single isomer, unassigned) [Example 272, N-(4-(6-ethyl-5-(8-methoxy-[1,2,4]triazolo[1,5-a]pyridin-6-yl)-4H-pyrrolo[3,2-d]thiazol-2-yl)cyclohexyl) oxetan-3-amine] | 137 | 122 | > 50000
9 | COc1cc(-c2[nH]c3sc(C4CCC(NC5COC5)CC4)nc3c2C)cn2ncnc12 (single isomer, unassigned) [Example 273, N-(4-(5-(8-methoxy-[1,2,4]triazolo[1,5-a]pyridin-6-yl)-6-methyl-4H-pyrrolo[3,2-d]thiazol-2-yl)cyclohexyl)oxetan-3-amine] | 13.7 | 26.5 | 5550
10 | COc1cc(-c2[nH]c3sc(C4CCC(N5CCNC(=O)C5)CC4)nc3c2C)cn2ncnc12 (single isomer, unassigned) [Example 275, 4-(4-(5-(8-methoxy-[1,2,4]triazolo[1,5-a]pyridin-6-yl)-6-methyl-4H-pyrrolo[3,2-d]thiazol-2-yl)cyclohexyl)piperazin-2-one] | 413 | 515 | > 50000
11 | COc1cc(-c2[nH]c3sc(C4CCC(N5CCNC(=O)C5)CC4)nc3c2C)cn2ncnc12 (single isomer, unassigned) [Example 276, 4-(4-(5-(8-methoxy-[1,2,4]triazolo[1,5-a]pyridin-6-yl)-6-methyl-4H-pyrrolo[3,2-d]thiazol-2-yl)cyclohexyl)piperazin-2-one] | 975 | > 3130 | > 50000
